pKi: −log10 of the molar value. *1 amine or outer side, *2 acyl side, *3 side chain or, on linkers, in order; H or OH if unused. Where a SMILES comes first, the peptide text is derived from it. [ ]: non-standard residue; d: D form. The star is where a group is joined. ξ: configuration not given here. Gly(N(CH2)2(3-indolyl)) = O=C(O)CNCCc1c[nH]c2ccccc12; X11 = O=C([C@H](CC1CCCCC1)N(CCCc1ccccc1)[*:1])[*:2]; X13 = O=C([C@H](CC1CCCCC1)N(CCc1ccccc1)[*:1])[*:2]; X5 = O=C([C@H](CC1CCCCC1)N(Cc1ccccc1)[*:1])[*:2]; X9 = CN(CCCc1ccccc1)[C@@H](CC1CCCCC1)C(=O)*; Pentanoyl(5-Ph) = O=C(CCCCc1ccccc1)*; d(hhPhe) = N[C@H](CCCc1ccccc1)C(=O)O; X4 = O=C(C=Cc1ccccc1[N+](=O)[O-])*; Hydrocinnamoyl = O=C(CCc1ccccc1)*; hPhe = N[C@@H](CCc1ccccc1)C(=O)O; Cha = N[C@@H](CC1CCCCC1)C(=O)O; ξhhPhe = NC(CCCc1ccccc1)C(=O)O; X6 = O=C(c1cc2ccccc2[nH]1)*; 3Amb = NCc1cccc(C(=O)O)c1; X1 = O=C(CC1CNc2ccccc21)*; X7 = O=C(C(O)CC1CCCCC1)*; X3 = Nc1ccccc1C=CC(=O)*; PhAc = O=C(Cc1ccccc1)*; Ahp = NCCCCCCC(=O)O; X12 = CC(c1ccccc1)*; Ahx = NCCCCCC(=O)O; Bn = c1ccc(C*)cc1

For this experiment, the target named is T1, C5a receptor (Homo sapiens, UniProt P21730).
T1 construct: from tissue; host or cells: polymorphonuclear leukocyte (PMNL) membrane fragments
T1 sequence (P21730 1-350): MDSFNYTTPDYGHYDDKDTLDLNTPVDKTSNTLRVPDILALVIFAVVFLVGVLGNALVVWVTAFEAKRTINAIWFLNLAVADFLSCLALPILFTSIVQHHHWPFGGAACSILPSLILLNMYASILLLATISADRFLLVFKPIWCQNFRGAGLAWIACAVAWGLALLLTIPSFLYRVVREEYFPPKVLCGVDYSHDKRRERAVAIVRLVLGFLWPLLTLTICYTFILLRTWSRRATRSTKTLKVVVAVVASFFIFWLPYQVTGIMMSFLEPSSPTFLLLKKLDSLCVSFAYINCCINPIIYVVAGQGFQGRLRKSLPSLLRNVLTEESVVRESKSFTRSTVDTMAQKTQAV
Put plainly: Anaphylatoxin (C5a) receptor binding Ki determination, 125I-C5a on PMNL membrane fragments. As to conditions: read-out: Ki (In vitro C5a Receptor Binding Potency). As for the experimental part:
The membrane-bound radiolabeled C5a was separated from the free radiolabeled C5a by filtration, and the recovered gamma radioactivity was measured. […] Free and membrane-bound ligand were separated by filtration.
The term pKi denotes the Ki on a negative log10 scale, so that one unit is a factor of ten. As to `CC(C)C[C@H](NC(=O)CNC(=O)[C@H](CC1CCCCC1)NC(=O)CCCCc1ccccc1)C(=O)N[C@H](CCCc1ccccc1)C(=O)N[C@@H](CCCNC(=N)N)C(=O)O` [Example 62, N-(5-Phenylvaleryl)-{(2S)-2-Amino-3-cyclohexylpropanoyl}-Glycyl-Leucyl-{(R)-2-Amino-5-phenylpentanoyl}-Arginyl-OH] ({Pentanoyl(5-Ph)}-[Cha]GL[d(hhPhe)]R-OH), the pKi was 5.97.

On to `CC(C)C[C@H](NC(=O)CNC(=O)[C@H](CC1CCCCC1)NCc1ccccc1)C(=O)N[C@H](CCCc1ccccc1)C(=O)N[C@@H](CCCNC(=N)N)C(=O)O` [Example 63, H-{(2S)-2-Amino-3-cyclohexylpropanoyl}(N-Benzyl)-Glycyl-Leucyl-{(R)-2-Amino-5-phenylpentanoyl}-Arginyl-OH] (H-[X5]GL[d(hhPhe)]R-OH), for which the pKi is 6.40. `CC(C)C[C@H](NC(=O)CNC(=O)[C@H](CC1CCCCC1)N(Cc1ccccc1)C(=O)CCCCCCN)C(=O)N[C@H](CCCc1ccccc1)C(=O)N[C@@H](CCCNC(=N)N)C(=O)O` [Example 64, N-(7-Aminoheptanoyl)-{(2S)-2-Amino-3-cyclohexylpropanoyl}(N-Benzyl)-Glycyl-Leucyl-{(R)-2-Amino-5-phenylpentanoyl}-Arginyl-OH] (H-[Ahp][X5]GL[d(hhPhe)]R-OH): the pKi is 6.33.

On to `C[C@H](NC(=O)CNC(=O)[C@H](CC1CCCCC1)NC(=O)CCCCCN)C(=O)NC(CCCc1ccccc1)C(=O)N[C@@H](CCCNC(=N)N)C(=O)O` (stereo partly drawn) [Example 74, N-(6-Aminohexanoyl)-{(2S)-2-Amino-3-cyclohexylpropanoyl}-Glycyl-Alanyl-{(+)-2-Amino-5-phenylpentanoyl}-Arginyl-OH] (H-[Ahx][Cha]GA[ξhhPhe]R-OH), for which the pKi was 4.04. On to `CC(C)C[C@H](NC(=O)CNC(=O)[C@H](CC1CCCCC1)NCCCc1ccccc1)C(=O)N[C@H](CCCc1ccccc1)C(=O)N[C@@H](CCCNC(=N)N)C(=O)O` [Example 77, N-(3-Phenylpropyl)-{(2S)-2-Amino-3-cyclohexylpropanoyl}-Glycyl-Leucyl-{(R)-2-Amino-5-phenylpentanoyl}-Arginyl-OH] (H-[X11]GL[d(hhPhe)]R-OH), for which the pKi was 7.30.

In the case of `CC(C)C[C@H](NC(=O)CNC(=O)[C@H](CC1CCCCC1)NCCc1ccccc1)C(=O)N[C@H](CCCc1ccccc1)C(=O)N[C@@H](CCCNC(=N)N)C(=O)O` [Example 78, N-(2-Phenethyl)-{(2S)-2-Amino-3-cyclohexylpropanoyl}-Glycyl-Leucyl-{(R)-2-Amino-5-phenylpentanoyl}-Arginyl-OH] (H-[X13]GL[d(hhPhe)]R-OH), the pKi is 7.15. Take `CC(C)C[C@H](NC(=O)CNCCc1c[nH]c2ccccc12)C(=O)N[C@H](CCCc1ccccc1)C(=O)N[C@@H](CCCNC(=N)N)C(=O)O` [Example 79, N-[(Indol-3-yl)ethyl]-Glycyl-Leucyl-{(R)-2-Amino-5-phenylpentanoyl}-Arginyl-OH] (H-[Gly(N(CH2)2(3-indolyl))]L[d(hhPhe)]R-OH): the pKi is 6.41. Regarding `CC(C)C[C@H](NC(=O)CNC(=O)CC1CNc2ccccc21)C(=O)N[C@H](CCCc1ccccc1)C(=O)N[C@@H](CCCNC(=N)N)C(=O)O` (stereo partly drawn) [Example 80, N-[(Indoline-3-yl)acetyl]-Glycyl-Leucyl-{(R)-2-Amino-5-phenylpentanoyl}-Arginyl-OH] (X1-GL[d(hhPhe)]R-OH), the negative-log Ki (pKi) was 6.06. For the compound `CC(C)C[C@H](NC(=O)[C@H](C)NC(=O)[C@H](CC1CCCCC1)NC(=O)[C@@H]1CCCN1C(=O)CCCCCN)C(=O)NC(CCCc1ccccc1)C(=O)N[C@@H](CCCNC(=N)N)C(=O)O` (stereo partly drawn) [Example 81, N-(6-Aminohexanoyl)-Prolyl-{(2S)-2-Amino-3-cyclohexylpropanoyl}-Alanyl-Leucyl-{(+)-2-Amino-5-phenylpentanoyl}-Arginyl-OH] (H-[Ahx]P[Cha]AL[ξhhPhe]R-OH), the pKi is 6.96.

For the compound `CC(C)C[C@H](NC(=O)CNC(=O)[C@@H](N)CSCc1ccccc1)C(=O)N[C@H](CCCc1ccccc1)C(=O)N[C@@H](CCCNC(=N)N)C(=O)O` [Example 90, H-Cysteinyl(S-benzyl)-Glycyl-Leucyl-{(R)-2-Amino-5-phenylpentanoyl}-Arginyl-OH] (H-C(Bn)GL[d(hhPhe)]R-OH), the pKi is 6.74. With `CC(C)C[C@H](NC(=O)CNC(=O)[C@@H](N)CSC(C)c1ccccc1)C(=O)N[C@H](CCCc1ccccc1)C(=O)N[C@@H](CCCNC(=N)N)C(=O)O` (stereo partly drawn) [Example 91, H-Cysteinyl(S-1-phenethyl)-Glycyl-Leucyl-{(R)-2-Amino-5-phenylpentanoyl}-Arginyl-OH] (H-C(X12)GL[d(hhPhe)]R-OH), the negative logarithm of the Ki (pKi) was 6.41.

`CC(C)C[C@H](NC(=O)CNC(=O)CCc1ccccc1)C(=O)N[C@H](CCCc1ccccc1)C(=O)N[C@@H](CCCNC(=N)N)C(=O)O` [Example 92, N-(3-Phenylpropanoyl)-Glycyl-Leucyl-{(R)-2-Amino-5-phenylpentanoyl}-Arginyl-OH] (Hydrocinnamoyl-GL[d(hhPhe)]R-OH): the negative logarithm of the Ki (pKi) is 6.12. Consider `CC(C)C[C@H](NC(=O)CNC(=O)Cc1ccccc1)C(=O)N[C@H](CCCc1ccccc1)C(=O)N[C@@H](CCCNC(=N)N)C(=O)O` [Example 93, N-Phenylacetyl-Glycyl-Leucyl-{(R)-2-Amino-5-phenylpentanoyl}-Arginyl-OH] (PhAc-GL[d(hhPhe)]R-OH), for which the pKi is 6.77. For `CC(C)C[C@H](NC(=O)CNC(=O)[C@H](CC1CCCCC1)N(C)CCCc1ccccc1)C(=O)N[C@H](CCCc1ccccc1)C(=O)N[C@@H](CCCNC(=N)N)C(=O)O` [Example 103, N-(3-Phenylpropyl)-N-methyl-{(2S)-2-Amino-3-cyclohexylpropanoyl}-Glycyl-Leucyl-{(R)-2-Amino-5-phenylpentanoyl}-Arginyl-OH] (X9-GL[d(hhPhe)]R-OH), the pKi was 5.88. On to `CC(C)C[C@H](NC(=O)CNC(=O)C=Cc1ccccc1N)C(=O)N[C@H](CCCc1ccccc1)C(=O)N[C@@H](CCCNC(=N)N)C(=O)O` [Example 106, N-(2-Aminocinnamoyl)-Glycyl-Leucyl-{(R)-2-Amino-5-phenylpentanoyl}-Arginyl-OH] (X3-GL[d(hhPhe)]R-OH), for which the pKi was 6.39.

Turning to `CC(C)C[C@H](NC(=O)CNC(=O)C=Cc1ccccc1[N+](=O)[O-])C(=O)N[C@H](CCCc1ccccc1)C(=O)N[C@@H](CCCNC(=N)N)C(=O)O` [Example 107, N-(2-Nitrocinnamoyl)-Glycyl-Leucyl-{(R)-2-Amino-5-phenylpentanoyl}-Arginyl-OH] (X4-GL[d(hhPhe)]R-OH), the negative logarithm of the Ki (pKi) was 7.06. Take `CC(C)C[C@H](NC(=O)[C@H](C)NC(=O)[C@H](CC1CCCCC1)NC(=O)[C@@H]1CCCN1C(=O)[C@H](CCCCN)NC(=O)CN)C(=O)N[C@@H](CSCc1ccccc1)C(=O)N[C@@H](CCCNC(=N)N)C(=O)O` [Example 108, H-Glycyl-Lysyl-Prolyl-{(2S)-2-Amino-3-cyclohexylpropanoyl}-Alanyl-Leucyl-Cysteinyl(S-benzyl)-Arginyl-OH] (H-GKP[Cha]ALC(Bn)R-OH): the pKi is 5.32. The same measure for `N=C(N)NCCC[C@H](NC(=O)C(CCCc1ccccc1)NC(=O)c1cccc(CNC(=O)[C@H](CC2CCCCC2)NC(=O)[C@@H]2CCCN2C(=O)CCCCCN)c1)C(=O)O` (stereo partly drawn) [Example 109, N-(6-Aminohexanoyl)-Prolyl-{(2S)-2-Amino-3-cyclohexylpropanoyl}-(3-Aminomethylbenzoyl)-{(+)-2-Amino-5-phenylpentanoyl}-Arginyl-OH] (H-[Ahx]P[Cha][3Amb][ξhhPhe]R-OH): 5.32; for `CC(C)C[C@H](NC(=O)CNC(=O)[C@@H](N)Cc1ccccc1)C(=O)N[C@H](CCCc1ccccc1)C(=O)N[C@@H](CCCNC(=N)N)C(=O)O` [Example 116, H-Phenylalanyl-Glycyl-Leucyl-{(R)-2-Amino-5-phenylpentanoyl}-Arginyl-OH] (H-FGL[d(hhPhe)]R-OH): 6.20.

With `CC(C)C[C@H](NC(=O)CNC(=O)[C@@H](N)CCc1ccccc1)C(=O)N[C@H](CCCc1ccccc1)C(=O)N[C@@H](CCCNC(=N)N)C(=O)O` [Example 117, H-{(S)-2-Amino-4-phenylbutyryl}-Glycyl-Leucyl-{(R)-2-Amino-5-phenylpentanoyl}-Arginyl-OH] (H-[hPhe]GL[d(hhPhe)]R-OH), the pKi is 6.43.

`CC(C)C[C@H](NC(=O)CNC(=O)[C@@H](N)Cc1c[nH]c2ccccc12)C(=O)N[C@H](CCCc1ccccc1)C(=O)N[C@@H](CCCNC(=N)N)C(=O)O` [Example 130, H-Tryptophanyl-Glycyl-Leucyl-{(R)-2-Amino-5-phenylpentanoyl}-Arginyl-OH] (H-WGL[d(hhPhe)]R-OH): the pKi is 6.85. Take `CC(C)C[C@H](NC(=O)CNC(=O)c1cc2ccccc2[nH]1)C(=O)N[C@H](CCCc1ccccc1)C(=O)N[C@@H](CCCNC(=N)N)C(=O)O` [Example 131, N-[(Indol-2-yl)-carbonyl]-Glycyl-Leucyl-{(R)-2-Amino-5-phenylpentanoyl}-Arginyl-OH] (X6-GL[d(hhPhe)]R-OH): the pKi was 6.25. Take `CC(C)C[C@H](NC(=O)CNC(=O)C(O)CC1CCCCC1)C(=O)N[C@H](CCCc1ccccc1)C(=O)N[C@@H](CCCNC(=N)N)C(=O)O` (stereo partly drawn) [Example 132, N-(3-Cyclohexyl-2-hydroxypropionyl)-Glycyl-Leucyl-{(R)-2-Amino-5-phenylpentanoyl}-Arginyl-OH] (X7-GL[d(hhPhe)]R-OH): the pKi was 6.38.

These data come from US5663148A, “Anaphylatoxin receptor ligands containing lipophilic residues” (Abbott Laboratories, priority 1994, dated 1997).
